Results on 17 compounds are retold here after ChEMBL document CHEMBL5357036, “Latest developments in coumarin-based anticancer agents: mechanism of action and structure-activity relationship studies” (RSC Med Chem, 2024).

One data set has as its system MDA-MB-468. Kind of data set: Anticancer activity against human MDA-MB-468 cells assessed as reduction in cell viability incubated for 48 hrs by MTT assay. Format: functional, cell-based. To be noted: MDA-MB-468, 48 h. On the technique in general: Formazan colour is commonly taken as a measure of viable cells.
The subject of a further data set is HCC1937. In words: Anticancer activity against human HCC1937 cells assessed as reduction in cell growth incubated for 48 hrs by MTT assay. Format: functional, cell-based. To be noted: HCC1937, 48 h.
For data set [1], the system named is MDA-MB-231. In words: Anticancer activity against human MDA-MB-231 cells assessed as reduction in cell viability incubated for 48 hrs by MTT assay. To be noted: MDA-MB-231, 48 h. The format is functional, cell-based.
In the next data set the test system is Hs-578T. In words: Anticancer activity against human Hs-578T cells assessed as cell growth inhibition by MTT assay. Format: functional, cell-based.
The next data set concerns SW-620. Kind of data set: Anticancer activity against human SW620 cells assessed as reduction in cell viability measured after 72 hrs by MTT assay. As to conditions: SW-620, 72 h. The format is functional, cell-based.
Data set [2] has as its system HCT-116. Kind of data set: Anticancer activity against human HCT-116 cells assessed as reduction in cell viability measured after 72 hrs by MTT assay. The format is functional, cell-based. As to conditions: HCT-116, 72 h.
Data set [3] concerns A549. Kind of data set: Antiproliferative activity against human A549 cells assessed as cell growth inhibition measured after 48 hrs by MTT assay. As to conditions: A549, 48 h. The format is functional, cell-based.
For another data set, the system named is HT-29. In words: Antiproliferative activity against human HT-29 cells assessed as cell growth inhibition measured after 48 hrs by MTT assay. As to conditions: HT-29, 48 h. The format is functional, cell-based.
Data set [4] concerns the target ALK tyrosine kinase receptor (Homo sapiens, UniProt Q9UM73, L1196M). In words: Inhibition of ALK L1196M mutant (unknown origin).
Data set [5] has as its target ALK tyrosine kinase receptor (Homo sapiens, UniProt Q9UM73, G1269A). Kind of data set: Inhibition of ALK G1269A mutant (unknown origin).
The target in data set [6] is ALK tyrosine kinase receptor (Homo sapiens, UniProt Q9UM73, G1202R). In words: Inhibition of ALK G1202R mutant (unknown origin).
Data set [7] concerns MCF7. In words: Anticancer activity against human MCF7 cells assessed as reduction in cell viability by MTT assay. Format: functional, cell-based.
Data set [8] deals with HCT-116. Kind of data set: Anticancer activity against human HCT-116 cells assessed as reduction in cell viability by MTT assay. The format is functional, cell-based.
Data set [9] deals with HCT-116. In words: Cytotoxicity against human HCT-116 cells assessed as reduction in cell growth measured after 48 hrs by MTT assay. The format is functional, cell-based. As to conditions: HCT-116, 48 h.
In data set [10] the test system is MCF7. In words: Cytotoxicity against human MCF7 cells assessed as inhibition of cell growth by resazurin microplate assay. The format is functional, cell-based.
In data set [11] the test system is HepG2. Kind of data set: Anticancer activity against human HepG2 cells assessed as reduction in cell viability by MTT assay. Format: functional, cell-based.
Data set [12] concerns DU-145. In words: Anticancer activity against human DU-145 cells assessed as cell growth inhibition by MTT assay. Format: functional, cell-based.
The test system of data set [13] is HepG2. In words: Antiproliferative activity against human HepG2 cells assessed as reduction in cell viability incubated for 72 hrs by MTT assay. Format: functional, cell-based. As to conditions: HepG2, 72 h.
A further data set deals with Vero. Kind of data set: Cytotoxicity against African green monkey Vero cells incubated for 24 hrs by CellTiter-Glo assay. Format: toxicity, cell-based, Chlorocebus sabaeus. (In ATP-based viability assays light output follows the ATP content of the culture.)
In the next data set the test system is HeLa. In words: Anticancer activity against human HeLa cells assessed as reduction in cell viability measured after 72 hrs by MTT assay. The format is functional, cell-based.
The test system of data set [14] is MCF7. Kind of data set: Anticancer activity against human MCF7 cells assessed as reduction in cell viability measured after 72 hrs by MTT assay. To be noted: MCF7, 72 h. Format: functional, cell-based.
The test system of data set [15] is DU-145. In words: Anticancer activity against human DU-145 cells assessed as cell growth inhibition measured after 48 hrs by MTT assay. As to conditions: DU-145, 48 h. Format: functional, cell-based.
For another data set, the system named is B16-F10. In words: Cytotoxicity against mouse B16F10 cells assessed as reduction in cell viability incubated for 48 hrs by MTT assay. To be noted: B16-F10, 48 h. The format is functional, cell-based.
Data set [16] concerns MDA-MB-231. In words: Cytotoxicity against human MDA-MB-231 cells assessed as cell growth inhibition by SRB assay. The format is functional, cell-based. (The SRB assay estimates cell density from bound dye.)
The subject of data set [17] is MCF7. Kind of data set: Cytotoxicity against human MCF7 cells assessed as cell growth inhibition by SRB assay. Format: functional, cell-based.
Data set [18] relates to MDA-MB-231. In words: Antiproliferative activity against human MDA-MB-231 cells assessed as cell growth inhibition measured after 48 hrs by MTT assay. As to conditions: MDA-MB-231, 48 h. The format is functional, cell-based.
The subject of data set [19] is MCF7. In words: Cytotoxicity against human MCF7 cells assessed as reduction in cell viability incubated for 48 hrs by MTT assay. The format is functional, cell-based. To be noted: MCF7, 48 h.
Data set [20] deals with HepG2. In words: Cytotoxicity against human HepG2 cells assessed as reduction in cell viability. Format: functional, cell-based.
The test system of data set [21] is HepG2. Kind of data set: Anticancer activity against human HepG2 cells assessed as reduction in cell viability measured after 72 hrs by MTT assay. Format: functional, cell-based. To be noted: HepG2, 72 h.
For data set [22], the system named is A549. In words: Antiproliferative activity against human A549 cells assessed as reduction in cell viability measured after 24 hrs by MTT assay. As to conditions: A549, 24 h. Format: functional, cell-based.

The structures appear in SMILES notation. ≈ marks a conversion by molar mass, not a printed value.

Chain of ALK tyrosine kinase receptor (Homo sapiens, UniProt Q9UM73, L1196M) (Q9UM73 19-1620 L1196M limits assumed): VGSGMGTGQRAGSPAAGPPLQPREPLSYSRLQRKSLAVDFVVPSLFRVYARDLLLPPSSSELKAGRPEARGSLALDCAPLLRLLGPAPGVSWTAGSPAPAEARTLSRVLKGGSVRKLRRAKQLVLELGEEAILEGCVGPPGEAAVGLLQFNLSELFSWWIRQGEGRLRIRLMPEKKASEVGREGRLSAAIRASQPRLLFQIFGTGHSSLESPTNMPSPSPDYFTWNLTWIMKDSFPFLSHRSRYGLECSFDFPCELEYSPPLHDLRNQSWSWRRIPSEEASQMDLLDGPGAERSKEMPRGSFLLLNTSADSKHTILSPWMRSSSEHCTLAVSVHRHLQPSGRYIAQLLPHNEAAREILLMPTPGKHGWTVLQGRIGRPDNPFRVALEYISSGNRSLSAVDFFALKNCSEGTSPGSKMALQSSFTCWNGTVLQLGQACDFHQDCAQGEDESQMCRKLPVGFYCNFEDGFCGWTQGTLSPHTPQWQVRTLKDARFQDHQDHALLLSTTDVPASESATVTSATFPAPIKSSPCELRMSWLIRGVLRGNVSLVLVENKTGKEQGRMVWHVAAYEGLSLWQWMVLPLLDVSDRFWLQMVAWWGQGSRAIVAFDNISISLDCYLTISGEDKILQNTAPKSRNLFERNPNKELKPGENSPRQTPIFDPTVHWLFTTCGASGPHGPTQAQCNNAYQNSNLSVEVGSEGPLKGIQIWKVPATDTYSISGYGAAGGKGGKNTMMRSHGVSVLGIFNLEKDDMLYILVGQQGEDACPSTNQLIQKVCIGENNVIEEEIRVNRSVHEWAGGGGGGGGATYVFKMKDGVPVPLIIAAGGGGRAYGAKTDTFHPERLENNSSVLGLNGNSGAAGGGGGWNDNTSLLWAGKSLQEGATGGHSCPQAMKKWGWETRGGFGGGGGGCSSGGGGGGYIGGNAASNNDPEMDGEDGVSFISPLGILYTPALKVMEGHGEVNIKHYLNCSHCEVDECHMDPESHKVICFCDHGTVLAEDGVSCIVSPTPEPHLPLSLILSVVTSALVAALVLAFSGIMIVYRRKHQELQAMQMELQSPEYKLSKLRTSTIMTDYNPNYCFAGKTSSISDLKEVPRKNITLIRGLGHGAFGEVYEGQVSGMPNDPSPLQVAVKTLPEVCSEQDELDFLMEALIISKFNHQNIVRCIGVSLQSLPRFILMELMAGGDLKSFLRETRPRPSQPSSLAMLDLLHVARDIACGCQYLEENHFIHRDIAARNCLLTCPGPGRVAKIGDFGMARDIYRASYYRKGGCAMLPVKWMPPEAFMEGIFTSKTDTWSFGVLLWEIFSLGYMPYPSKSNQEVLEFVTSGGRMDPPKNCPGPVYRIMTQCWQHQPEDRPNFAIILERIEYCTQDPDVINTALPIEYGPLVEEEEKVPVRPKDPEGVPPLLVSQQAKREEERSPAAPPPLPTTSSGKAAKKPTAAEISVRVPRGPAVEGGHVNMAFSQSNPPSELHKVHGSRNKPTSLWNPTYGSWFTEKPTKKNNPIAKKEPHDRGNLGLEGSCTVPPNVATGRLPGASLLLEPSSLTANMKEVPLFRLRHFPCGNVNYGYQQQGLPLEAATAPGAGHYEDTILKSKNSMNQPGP
Chain of ALK tyrosine kinase receptor (Homo sapiens, UniProt Q9UM73, G1202R) (Q9UM73 19-1620 G1202R limits assumed): as the sequence (Q9UM73 19-1620 L1196M limits assumed) above, with M1178L, G1184R counted along it
Chain of ALK tyrosine kinase receptor (Homo sapiens, UniProt Q9UM73, G1269A) (Q9UM73 19-1620 G1269A limits assumed): as the sequence (Q9UM73 19-1620 L1196M limits assumed) above, with M1178L, G1251A counted along it

With `O=c1oc2ccccc2c(O)c1C(c1ccc(O)cc1O)c1c(O)c2ccccc2oc1=O`, the IC50 with MDA-MB-468 worked out at 15.2 µM; in the data set on HCC1937, 20.2 µM; in the data set with MDA-MB-231 [1] it was 25.3 µM; in the data set with Hs-578T, 25.7 µM.

On to `O=C(OCC#CCOc1no[n+]([O-])c1S(=O)(=O)c1ccccc1)c1cc2ccccc2oc1=O`, for which the IC50 with SW-620 stood at 1.86 µM; in the data set on HCT-116 [2], 3.46 µM.

In the case of `O=c1oc2ccccc2cc1-c1nc(Nc2c3ccccc3nc3ccc(F)cc23)cs1`, the IC50 worked out at 5.18 µM in the data set with A549 [3] and 23.1 µM in the data set with HT-29.

As for `COc1ccc2nc(-c3cc4ccc(N5CCOCC5)cc4oc3=O)sc2c1`, the IC50 was determined as 0.27 µM in [4], 0.3 µM in data set [5] and 0.59 µM in data set [6].

For `O=C(CSc1nnc(NC(=O)c2ccccc2)s1)Nc1ccc2oc(=O)ccc2c1`, the IC50 was determined as 54.9 mg/L (≈ 125 µM) in the data set with MCF7 [7] and 30.7 mg/L (≈ 70 µM) in the data set on HCT-116 [8].

Turning to `COc1ccc(-c2cc(-c3cc4ccccc4oc3=O)nc(N)c2C#N)cc1`, the IC50 in the data set on HCT-116 [9] was 9.9 µM; in the data set on MCF7 [10], 14.1 µM.

Consider `COc1ccc(C(=O)Nc2nnc(SCC(=O)Nc3ccc4oc(=O)ccc4c3)s2)cc1`, for which, in the data set with HepG2 [11], the IC50 was 24.9 mg/L (≈ 53.1 µM).

For the compound `CC(C)(C)c1cc(C(C)(C)C)c2oc(=O)c(-c3csc(-n4nc(-c5ccccc5)cc4N)n3)cc2c1`, the IC50 with DU-145 [12] amounted to 7 µM.

As to `O=c1cc(OCc2cc(-c3cc4c(cc3Cl)OCO4)no2)c2cc(Cl)ccc2o1`, the IC50 is 12.8 µM in the data set with HepG2 [13] and 144 µM in the data set with Vero.

With `O=C(NCCOCc1no[n+]([O-])c1S(=O)(=O)c1ccccc1)c1cc2ccccc2oc1=O`, the IC50 with HeLa is 0.88 µM; with MCF7 [14], 0.61 µM.

As to `O=c1oc2ccccc2c2c1nc(-c1ccc(C(F)(F)F)cc1)c1occc12`, the IC50 with DU-145 [15] is 20.9 µM; with B16-F10 it was 13 µM.

Turning to `Cc1c(-c2csc(N)n2)c(=O)oc2cc(OC(C)(C)C(=O)O)ccc12`, the IC50 with MDA-MB-231 [16] amounted to 4.84 µM; in the data set on MCF7 [17] it was 2.39 µM.

Turning to `COc1ccc2nc3ccccc3c(Nc3csc(-c4cc5ccccc5oc4=O)n3)c2c1`, the IC50 with MDA-MB-231 [18] amounted to 8.03 µM.

For the compound `O=c1oc2ccccc2c2c1nc(-c1ccccn1)c1occc12`, the IC50 with MCF7 [19] came out at 8 µM.

Consider `CO[C@@H]1O[C@H](Cn2nncc2COc2cc(=O)oc3ccccc23)[C@@H](O)[C@H](O)[C@H]1O`, for which, in the data set on HepG2 [20], the IC50 came out at 107 mg/L (≈ 255 µM).

As for `O=C(OCCCOc1no[n+]([O-])c1S(=O)(=O)c1ccccc1)c1cc2ccccc2oc1=O`, the IC50 with HepG2 [21] was found to be 3.86 µM.

For `O=C(/C(Cl)=N/Nc1ccc([N+](=O)[O-])cc1)n1c(-c2cc3ccccc3oc2=O)nc2ccccc21`, the IC50 with A549 [22] amounted to 0.28 µM.

The IC50 is the point on the concentration scale where inhibition reaches its midpoint.
